According to patent US8148373B2, “Compounds” (AstraZeneca AB, priority 2008, dated 2012):
Counter-ions that a name gives are not always drawn.

Tests used:
[1] = target: T1, human muscarinic acetylcholine M3 receptor (M3-ACh) (Homo sapiens, UniProt P20309); assay: Muscarinic 3 Receptor Binding Assay ([3H]NMS competition, SPA); conditions: for IC50: [3H]NMS 0.1 nM, CHO-K1 cell membranes, 16 hours at room temperature, read-out: M3 pIC50 (converted)
T1 construct: expressed in transfected cells; host or cells: CHO-K1 (Chinese Hamster Ovary) cell membranes
T1 sequence (P20309 whole entry): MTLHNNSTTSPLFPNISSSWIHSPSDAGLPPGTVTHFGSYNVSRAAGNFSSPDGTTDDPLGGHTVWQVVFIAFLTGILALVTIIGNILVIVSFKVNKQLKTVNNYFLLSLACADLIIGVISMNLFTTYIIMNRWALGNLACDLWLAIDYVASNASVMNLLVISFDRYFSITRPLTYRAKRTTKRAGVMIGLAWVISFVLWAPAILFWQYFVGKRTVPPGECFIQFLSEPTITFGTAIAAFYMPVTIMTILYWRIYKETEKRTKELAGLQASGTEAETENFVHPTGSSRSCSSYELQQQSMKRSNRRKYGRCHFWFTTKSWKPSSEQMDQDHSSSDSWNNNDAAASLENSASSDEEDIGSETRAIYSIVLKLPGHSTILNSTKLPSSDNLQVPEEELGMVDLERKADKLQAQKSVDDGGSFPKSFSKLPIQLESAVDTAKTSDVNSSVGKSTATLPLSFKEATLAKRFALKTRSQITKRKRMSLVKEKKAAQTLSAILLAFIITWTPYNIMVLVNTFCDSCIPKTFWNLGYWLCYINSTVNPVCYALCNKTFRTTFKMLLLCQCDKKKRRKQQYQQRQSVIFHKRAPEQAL
Method in brief: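 Competition SPA binding of 0.1 nM [3H]NMS (quarter Kd) to membranes from CHO-K1 cells expressing human M3, in 20 mM HEPES pH 7.4, 5 mM MgCl2, 1% DMSO. Incubated 16 h at room temperature; non-specific binding with 1 µM atropine. pIC50 from 50% reduction of specific binding.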

[2] = target: T2, Adrenergic β2 (H292 cells) (Homo sapiens, UniProt P07550); assay: Assay for Adrenergic β2 Mediated cAMP Production (concentration response, AlphaScreen cAMP detection); assay type: cell-based; conditions: for EC50: cAMP production, 60 minutes at room temperature, 300 μM rolipram, read-out: β2 pEC50 (converted); for β2 Intrinsic activity: fraction relative to the maximum activity determined for formoterol
T2 construct: endogenous in cells; host or cells: H292 cells
T2 sequence (P07550 whole entry): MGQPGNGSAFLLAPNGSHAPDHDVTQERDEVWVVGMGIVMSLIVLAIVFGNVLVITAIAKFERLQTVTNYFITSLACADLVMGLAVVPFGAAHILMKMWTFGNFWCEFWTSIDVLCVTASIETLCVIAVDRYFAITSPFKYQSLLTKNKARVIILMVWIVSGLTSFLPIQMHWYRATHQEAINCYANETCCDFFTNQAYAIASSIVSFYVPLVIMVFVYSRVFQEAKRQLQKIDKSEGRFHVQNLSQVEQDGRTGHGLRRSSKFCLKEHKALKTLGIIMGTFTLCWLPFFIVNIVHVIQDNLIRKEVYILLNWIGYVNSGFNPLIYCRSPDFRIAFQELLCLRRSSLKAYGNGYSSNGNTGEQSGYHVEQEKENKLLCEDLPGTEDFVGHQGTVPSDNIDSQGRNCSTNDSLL
Method in brief: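 H292 cells plated overnight, pre-treated with rolipram (300 μM final) 10 min, then compound 60 min at room temperature in HBSS/10 mM HEPES pH7.4/5 mM glucose, 1% DMSO. Lysate cAMP read by AlphaScreen against a cAMP standard curve; 4-parameter fit gives pEC50 and intrinsic activity as fraction of formoterol maximum.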

Compound	IC50 [1] [nM]	EC50 [2] [nM]	β2 Intrinsic activity [2]	inhibition at 1 µM ([1]; read-out: M3 inhibtion at 1 μM (printed in the M3 pIC50 column)) [%]
CC(C)c1nc(C(=O)N2CCOC3(CCN(Cc4ccc(C(F)(F)F)c(CCNC[C@H](O)c5ccc(O)c6[nH]c(=O)sc56)c4)CC3)C2)cs1 [Example 270, (R)-4-Hydroxy-7-(1-hydroxy-2-(5-((4-(2-isopropylthiazole-4-carbonyl)-1-oxa-4,9-diazaspiro[5.5]undecan-9-yl)methyl)-2-(trifluoromethyl)phenethylamino)ethyl)benzo[d]thiazol-2(3H)-one ditrifluoroacetate]	79.4	251	0.7	
Cc1nc(C(=O)N2CC(C)(C)OC3(CCN(Cc4cccc(CCNC[C@H](O)c5ccc(O)c6[nH]c(=O)sc56)c4)CC3)C2)cs1 [Example 271, (R)-7-(2-(3-((2,2-Dimethyl-4-(2-methylthiazole-4-carbonyl)-1-oxa-4,9-diazaspiro[5.5]undecan-9-yl)methyl)phenethylamino)-1-hydroxyethyl)-4-hydroxybenzo[d]thiazol-2(3H)-one ditrifluoroacetate]		6.31	1	30
CCc1cc(C(=O)N2CC(C)(C)OC3(CCN(Cc4cccc(CCNC[C@H](O)c5ccc(O)c6[nH]c(=O)ccc56)c4)CC3)C2)cs1 [Example 272, (R)-5-(2-(3-((4-(5-ethylthiophene-3-carbonyl)-2,2-dimethyl-1-oxa-4,9-diazaspiro[5.5]undecan-9-yl)methyl)phenethylamino)-1-hydroxyethyl)-8-hydroxyquinolin-2(1H)-one ditrifluoroacetate]	794	10	1	
CC(C)c1nc(C(=O)N2CCOC3(CCN(Cc4ccc(C(F)(F)F)c(CCNC[C@H](O)c5ccc(O)c6[nH]c(=O)ccc56)c4)CC3)C2)cs1 [Example 273, (R)-8-Hydroxy-5-(1-hydroxy-2-(5-((4-(2-isopropylthiazole-4-carbonyl)-1-oxa-4,9-diazaspiro[5.5]undecan-9-yl)methyl)-2-(trifluoromethyl)phenethylamino)ethyl)quinolin-2(1H)-one ditrifluoroacetate]	79.4	398	0.5	
CCC(CC)c1nc(C(=O)N2CCOC3(CCN(Cc4cccc(CCNC[C@H](O)c5ccc(O)c6[nH]c(=O)ccc56)c4)CC3)C2)cs1 [Example 274, (R)-8-Hydroxy-5-(1-hydroxy-2-(3-((4-(2-(pentan-3-yl)thiazole-4-carbonyl)-1-oxa-4,9-diazaspiro[5.5]undecan-9-yl)methyl)phenethylamino)ethyl)quinolin-2(1H)-one ditrifluoroacetate]	2.51	25.1	1.0	
CC(C)c1cc(C(=O)N2CCOC3(CCN(Cc4cccc(CC(C)(C)NC[C@H](O)c5ccc(O)c6[nH]c(=O)ccc56)c4)CC3)C2)cs1 [Example 275, (R)-8-Hydroxy-5-(1-hydroxy-2-(1-(3-((4-(5-isopropylthiophene-3-carbonyl)-1-oxa-4,9-diazaspiro[5.5]undecan-9-yl)methyl)phenyl)-2-methylpropan-2-ylamino)ethyl)quinolin-2(1H)-one ditrifluoroacetate]	1.58	50.1	1	
CC(C)c1cc(C(=O)N2CCOC3(CCN(Cc4cccc(C[C@@H](C)NC[C@H](O)c5ccc(O)c6[nH]c(=O)ccc56)c4)CC3)C2)cs1 [Example 276, 8-Hydroxy-5-((R)-1-hydroxy-2-((R)-1-(3-((4-(5-isopropylthiophene-3-carbonyl)-1-oxa-4,9-diazaspiro[5.5]undecan-9-yl)methyl)phenyl)propan-2-ylamino)ethyl)quinolin-2(1H)-one ditrifluoroacetate]	2	39.8	1	
Cc1nc(C(=O)N2CCOC3(CCN(Cc4cccc(CCOCCC(=O)N(CCNC[C@H](O)c5ccc(O)c6[nH]c(=O)sc56)C5CCCCC5)c4)CC3)C2)cs1 [Example 277, (R)—N-Cyclohexyl-N-(2-(2-hydroxy-2-(4-hydroxy-2-oxo-2,3-dihydrobenzo[d]thiazol-7-yl)ethylamino)ethyl)-3-(3-((4-(2-methylthiazole-4-carbonyl)-1-oxa-4,9-diazaspiro[5.5]undecan-9-yl)methyl)phenylethoxy)propanamide ditrifluoroacetate]	0.1	31.6	0.9	
CC(C)c1nc(C(=O)N2CCOC3(CCN(Cc4csc(CCNC[C@H](O)c5ccc(O)c6[nH]c(=O)sc56)c4)CC3)C2)cs1 [Example 278, (R)-4-hydroxy-7-(1-hydroxy-2-(2-(4-((4-(2-isopropylthiazole-4-carbonyl)-1-oxa-4,9-diazaspiro[5.5]undecan-9-yl)methyl)thiophen-2-yl)ethylamino)ethyl)benzo[d]thiazol-2(3H)-one ditrifluoroacetate]	0.398	3.98	1.0	
CC(C)c1nc(C(=O)N2CCOC3(CCN(CCCCCCC(C)(C)CCNC[C@H](O)c4ccc(O)c5[nH]c(=O)sc45)CC3)C2)cs1 [Example 279, (R)-4-Hydroxy-7-(1-hydroxy-2-(9-(4-(2-isopropylthiazole-4-carbonyl)-1-oxa-4,9-diazaspiro[5.5]undecan-9-yl)-3,3-dimethylnonylamino)ethyl)benzo[d]thiazol-2(3H)-one formate]	7.94	316	0.9	
CC(CCCCCCCCN1CCC2(CC1)CN(C(=O)c1csc(C(C)C)n1)CCO2)NC[C@H](O)c1ccc(O)c2[nH]c(=O)sc12 (stereo partly drawn) [Example 280, (R)-4-Hydroxy-7-(1-hydroxy-2-(10-(4-(2-isopropylthiazole-4-carbonyl)-1-oxa-4,9-diazaspiro[5.5]undecan-9-yl)decan-2-ylamino)ethyl)benzo[d]thiazol-2(3H)-one formate]	0.794	5.01	1.2	
CC(C)c1nc(C(=O)N2CCOC3(CCN(CCCSCCCCNC[C@H](O)c4ccc(O)c5[nH]c(=O)sc45)CC3)C2)cs1 [Example 281, (R)-4-Hydroxy-7-(1-hydroxy-2-(4-(3-(4-(2-isopropylthiazole-4-carbonyl)-1-oxa-4,9-diazaspiro[5.5]undecan-9-yl)propylthio)butylamino)ethyl)benzo[d]thiazol-2(3H)-one formate]	1.58	31.6	0.8	
CC(C)c1nc(C(=O)N2CCOC3(CCN(CCC[S+]([O-])CCCCNC[C@H](O)c4ccc(O)c5[nH]c(=O)sc45)CC3)C2)cs1 (stereo partly drawn) [Example 282, 4-Hydroxy-7-((1R)-1-hydroxy-2-(4-(3-(4-(2-isopropylthiazole-4-carbonyl)-1-oxa-4,9-diazaspiro[5.5]undecan-9-yl)propylsulfinyl)butylamino)ethyl)benzo[d]thiazol-2(3H)-one formate]	20	50.1	1	
CC(CCCCCCCN1CCC2(CC1)CN(C(=O)c1csc(C(C)C)n1)CCO2)CNC[C@H](O)c1ccc(O)c2[nH]c(=O)sc12 (stereo partly drawn) [Example 283, 4-Hydroxy-7-((1R)-1-hydroxy-2-(9-(4-(2-isopropylthiazole-4-carbonyl)-1-oxa-4,9-diazaspiro[5.5]undecan-9-yl)-2-methylnonylamino)ethyl)benzo[d]thiazol-2(3H)-one formate]	1.26	79.4	1.1	
CC(C)c1cc(C(=O)N2CCOC3(CCN(CCCCCCCNC[C@H](O)c4ccc(O)c5[nH]c(=O)sc45)CC3)C2)cs1 [Example 284, (R)-4-Hydroxy-7-(1-hydroxy-2-(7-(4-(5-isopropylthiophene-3-carbonyl)-1-oxa-4,9-diazaspiro[5.5]undecan-9-yl)heptylamino)ethyl)benzo[d]thiazol-2(3H)-one formate]	2	12.6	0.9	
CC(C)c1nc(C(=O)N2CCOC3(CCN(CCCCCC(C)(C)CCCNC[C@H](O)c4ccc(O)c5[nH]c(=O)sc45)CC3)C2)cs1 [Example 285, (R)-4-Hydroxy-7-(1-hydroxy-2-(9-(4-(2-isopropylthiazole-4-carbonyl)-1-oxa-4,9-diazaspiro[5.5]undecan-9-yl)-4,4-dimethylnonylamino)ethyl)benzo[d]thiazol-2(3H)-one formate]	3.98	15.8	1	
